Reference: patent US9371265B2, “Compositions and methods related to inhibitors of JAK kinase” (EP PHARMA, INC., priority 2012, dated 2016)

Experiments:
[1] = molecular target: PAK1 (Homo sapiens, UniProt Q13153); test: Kinase panel: PAK1; assay type: biochemical; conditions: 10 μM EP009
Procedure: Achieving JAK3 selectivity remains a significant challenge in the development of new small molecules for the treatment of cancer and immune-derived diseases. As such, the inventors employed cell-based screening assays of small-molecule libraries based upon the chemical scaffold of the established JAK3 inhibitor NC1153 (Stepkowski et al., J Immunol. (2005), 175(7):4236-4246) EP009 (FIG. 2A) was selected as a lead compound due to improved intrinsic stability (>95% purity in various solvents at 37° C. for 24 hours; FIG. 3) and high-degree of JAK3 selectivity. To test JAK3 versus JAK2 specificity of EP009, the IL-2/JAK3-dependent Kit225, and IL-3/JAK2-dependent BaF/3 cell lines were used. Kit225 and BaF/3 cells growing in the presence of IL-2 or IL-3, respectively, were treated with ascending concentrations of EP009 for 12 hours and cellular JAK3 and JAK2 tyrosine phosphorylation levels detected by Western blot analysis (FIGS. 2B and 2C). Following densitometric analysis, EP009 was determined to dose-dependently reduce IL-2-mediated JAK3 tyrosine phosphorylation with a cellular 50% inhibitory concentration (IC50) between 10 and 20 μM (FIG. 2B). […] To globally evaluate specificity, the inhibitory activity of EP009 was measured against a panel of protein kinases distributed throughout the kinome using the scanEDGE profiling service (KINOMEscan). […]

[2] = system: HEPG2; test: HEPG2 cell viability (MTS); assay type: cell-based, human; conditions: 72 hours, concentrations giving complete loss of JAK3-dependent cell viability (0-10 μM)
Procedure: FIGS. 2A-2F. Selective inhibition of JAK3 by EP009 results in loss of JAK3-dependent tumor cell line viability with no detectable off-target effects in key cell types. (A) Chemical structure of EP009 (M.W. 224.34). (B) Kit225 or (C) BaF/3 cells cultured in the presence of IL-2 or IL-3, respectively, were treated with vehicle (PBS; lane a) or increasing amounts of EP009 (0-50 μM; lanes b-h) for 12 hours. Cells were then lysed, clarified, and immunoprecipitated (IP) with anti-JAK3 (α-JAK3) or anti-JAK2 (α-JAK2), and subjected to Western blot (WB) analysis with anti-phosphotyrosine (α-pY). Blots were stripped and reprobed with corresponding antibody to verify equivalent protein loading. […] (E) Kit225 or BaF/3 cells were cultured with increasing amounts of EP009 (0-10 μM) for 72 hours and cell viability measured with the MTS tetrazolium salt assay. Values represent mean absorbance (OD490-OD650 nm) normalized to vehicle (PBS) treated control cells, while error bars represent the standard deviation (n=3). (F) HEK293, HEPG2, or naïve primary human PBMCs were cultured with increasing amounts of EP009 (0-10 μM) for 72 hours and cell viability measured with the MTS tetrazolium salt assay. Values represent mean absorbance (OD490-OD650 nm) normalized to vehicle (PBS) treated control cells, while error bars represent the standard deviation (n=3). […]

[3] = system: SUP-M2 cells; test: SUP-M2 cell viability (MTS); assay type: cell-based; conditions: Homo sapiens; SUP-M2, 72 hours
Procedure: (§1) FIGS. 7A-7C. EP009 reduces ALCL cell viability through induction of caspase 3 mediated apoptosis. (A) SUP-M2, SU-DHL-1 or H2228 cells were cultured with increasing amounts of EP009 (0-10 μM) for 72 hours and cell viability measured with the MTS tetrazolium salt assay. Values represent mean absorbance (OD490-OD650 nm) normalized to vehicle (PBS) treated control cells, while error bars represent the standard deviation (n=3). (B) SU-DHL-1 cells were treated with vehicle (PBS) or increasing amounts of EP009 (0-50 μM) for 24 hours. Cells were then lysed, clarified, and subjected to Luminex multiplex analysis to detect activated caspase 3 and (C) cleaved PARP. Values represent MFI normalized to corresponding GAPDH MFI, while error bars represent the standard deviation (n=2). Representative data from three independent experiments are shown. Statistical significance was determined using Student's t-test. (*, p<0.05).
Cell viability was assessed with 3-(4,5-dimethylthiazol-2-yl)-5-(3-carboxymethoxyphenyl)-2-(4-sulfophenyl)-2H-tetrazolium salt (MTS) reagent (Promega) in triplicates according to the manufacturer's instructions. Three independent experiments were performed. The error bars represent standard deviation.

[4] = system: PARP; test: PARP cleavage in SU-DHL-1 cells (Luminex multiplex); assay type: cell-based, human; conditions: 24 hours, dose-dependent
Procedure: as §1
The MILLIPLEX MAP 8-plex Multi-Pathway Signaling Phosphoprotein kit (Millipore) was used to detect phosphorylated ERK1/2 (Thr185/Tyr187), STAT3 (Ser727), JNK1/2 (Thr183/Tyr185), p70 S6 kinase (Thr412), IκBα (Ser32), STAT5A/B (Tyr694/699), CREB (Ser133), and p38 (Thr180/Tyr182). The MILLIPLEX MAP 5-plex STAT Phosphoprotein kit (Millipore) was used to detect phosphorylated STAT1 (Tyr701), STAT2 (Tyr690), STAT3 (Tyr705), STAT5A/B (Tyr694/699), and STAT6 (Tyr641). […]

Chain of PAK1 (Q13153 whole entry): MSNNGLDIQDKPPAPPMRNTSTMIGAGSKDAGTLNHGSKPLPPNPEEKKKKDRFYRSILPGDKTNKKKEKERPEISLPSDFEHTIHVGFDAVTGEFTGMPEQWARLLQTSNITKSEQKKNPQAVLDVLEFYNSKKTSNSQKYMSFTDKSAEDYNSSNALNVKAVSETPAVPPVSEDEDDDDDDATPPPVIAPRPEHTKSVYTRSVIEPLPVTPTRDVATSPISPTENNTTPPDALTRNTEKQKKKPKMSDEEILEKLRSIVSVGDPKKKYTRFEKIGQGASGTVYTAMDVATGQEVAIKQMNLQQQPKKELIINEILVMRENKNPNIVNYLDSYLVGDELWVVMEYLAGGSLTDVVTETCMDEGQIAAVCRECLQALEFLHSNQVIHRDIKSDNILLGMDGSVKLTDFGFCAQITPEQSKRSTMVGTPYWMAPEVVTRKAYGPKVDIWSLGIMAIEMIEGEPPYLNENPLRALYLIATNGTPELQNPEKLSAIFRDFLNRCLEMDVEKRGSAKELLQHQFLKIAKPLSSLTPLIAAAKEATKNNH

**Q.** How did the “Kinase Activity (% of Control)” value [1] turn out when `C=C1CCCCCCCCCC(CO)C1=O` (stereo not shown) [EP009, 2-(Hydroxymethyl)-12-methylenecyclododecanone] was run?
**A.** 100 % of Control

**Q.** What about the “effect on HEPG2 cell viability” value [2] of the same compound?
**A.** no detectable loss of cell viability

**Q.** And the IC50 [3]?
**A.** 5 µM

**Q.** And the PARP cleavage [4]?
**A.** increased
